Experimental data as given in patent publication US11873298B2, “Compounds and uses thereof” (JANSSEN PHARMACEUTICA NV, priority 2017, dated 2024).
Where “and” joins values, the source holds several entries; their conditions need not be identical. Equal entries are not always repeated.

How the values were obtained:
Type in all cases: cell-based
Ole1 = target: T1, Ole1 (Saccharomyces cerevisiae, UniProt P21147); assay: Growth inhibition of yeast strain expressing Ole1 as sole desaturase; settings: for IC50 / OLE1 % Max Inhibition: yeast strain expressing Ole1 as sole desaturase
T1 construct: expressed in transfected cells; host or cells: S. cerevisiae ole1Δ strain (W303 pdr1Δ pdr3Δ background), plasmid pRS316 with TDH3 promoter and CYC1 terminator
T1 sequence (P21147 1-510): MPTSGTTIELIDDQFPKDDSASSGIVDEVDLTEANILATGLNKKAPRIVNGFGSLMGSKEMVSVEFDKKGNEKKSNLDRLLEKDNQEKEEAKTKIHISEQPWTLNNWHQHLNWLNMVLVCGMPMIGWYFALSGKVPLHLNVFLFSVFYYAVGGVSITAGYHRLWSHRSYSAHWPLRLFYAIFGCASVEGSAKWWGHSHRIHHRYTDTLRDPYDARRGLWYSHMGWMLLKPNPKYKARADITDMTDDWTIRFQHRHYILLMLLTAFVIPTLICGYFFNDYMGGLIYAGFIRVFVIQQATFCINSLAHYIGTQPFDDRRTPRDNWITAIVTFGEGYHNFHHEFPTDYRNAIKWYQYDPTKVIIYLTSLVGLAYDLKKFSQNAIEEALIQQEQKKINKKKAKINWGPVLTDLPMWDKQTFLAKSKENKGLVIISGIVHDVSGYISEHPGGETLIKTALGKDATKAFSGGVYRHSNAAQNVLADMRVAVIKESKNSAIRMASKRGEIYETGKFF
How it was run: (§1)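 Yeast ole1Δ strain (W303 pdr1Δ pdr3Δ background) carrying plasmid-borne Ole1, SCD1 or SCD5 as sole desaturase was grown in uracil-lacking media, pre-cultured in raffinose for 6 h, then seeded in galactose medium with compound in DMSO. Growth was read as OD600 after 30° C. incubation: 24 h for Ole1, 40 h for SCD1/SCD5.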

SCD5 = target: T2, SCD5 (Homo sapiens, UniProt Q86SK9); assay: Growth inhibition of humanized yeast strain expressing SCD5 as sole desaturase; settings: for IC50 / SCD5 % Max Inhibition: humanized yeast strain expressing SCD5
T2 construct: host or cells: S. cerevisiae ole1Δ strain (W303 pdr1Δ pdr3Δ background), plasmid pRS316 with TDH3 promoter and CYC1 terminator
T2 sequence (Q86SK9 1-330): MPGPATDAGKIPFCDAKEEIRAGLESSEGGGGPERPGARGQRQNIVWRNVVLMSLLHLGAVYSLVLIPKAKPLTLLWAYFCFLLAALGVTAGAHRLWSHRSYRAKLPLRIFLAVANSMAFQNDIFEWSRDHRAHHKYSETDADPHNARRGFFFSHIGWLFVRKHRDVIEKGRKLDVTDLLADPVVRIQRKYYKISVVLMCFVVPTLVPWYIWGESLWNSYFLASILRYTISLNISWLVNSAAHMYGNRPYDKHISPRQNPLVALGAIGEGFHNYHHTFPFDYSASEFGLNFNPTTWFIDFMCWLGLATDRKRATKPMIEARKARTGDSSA
How it was run: as §1

SCD1 = target: T3, SCD1 (Homo sapiens, UniProt O00767); assay: Growth inhibition of humanized yeast strain expressing SCD1 as sole desaturase; settings: for IC50 / SCD1 % Max Inhibition: humanized yeast strain expressing SCD1
T3 construct: host or cells: S. cerevisiae ole1Δ strain (W303 pdr1Δ pdr3Δ background), plasmid pRS316 with TDH3 promoter and CYC1 terminator
T3 sequence (O00767 1-359): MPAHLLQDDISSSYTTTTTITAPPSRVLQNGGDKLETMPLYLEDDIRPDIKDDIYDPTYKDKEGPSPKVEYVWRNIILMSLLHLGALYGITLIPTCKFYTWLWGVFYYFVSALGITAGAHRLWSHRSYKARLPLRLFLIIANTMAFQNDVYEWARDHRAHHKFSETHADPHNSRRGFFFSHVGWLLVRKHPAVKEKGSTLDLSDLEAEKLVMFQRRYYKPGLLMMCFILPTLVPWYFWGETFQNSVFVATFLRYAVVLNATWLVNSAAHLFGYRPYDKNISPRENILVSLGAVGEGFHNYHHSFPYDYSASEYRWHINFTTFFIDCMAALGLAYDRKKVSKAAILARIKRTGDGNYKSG
How it was run: as §1

Row | Compound | IC50 (Ole1) [µM] | OLE1 % Max Inhibition (Ole1) | IC50 (SCD5) [µM] | SCD5 % Max Inhibition (SCD5) | IC50 (SCD1) [µM] | SCD1 % Max Inhibition (SCD1) | growth of yeast expressing OLE1 in presence of inhibitor (Ole1; FIG. 6) | half-maximal inhibitory concentration (IC50) (SCD5; SCD5 humanized strain, FIG. 6) | half-maximal inhibitory concentration (IC50) (SCD1; SCD1 humanized strain, FIG. 6)
1 | CC(C)(CO)n1ncc2ccc(-c3noc(C4CCN(C(=O)CNC(=O)c5ccccc5)CC4)n3)cc21 [Compound 189] | > 45 | 98.14% | > 45 | 68.58% | > 45 | 88.10% | – | – | –
2 | O=C(CN1Cc2ccccc2C1=O)N1CCC(c2nc(-c3ccc4c(c3)COC4)no2)CC1 [Compound 223] | > 45 | 2.22% | 41 | 67.37% | 40.6 | 68.23% | – | – | –
3 | CCn1nc2cc(-c3noc(C4CCN(C(=O)CNC(=O)c5ccccc5)CC4)n3)ccc2c1C [Compound 320] | > 45 | 28.5% | > 45 | 76.0% | – | 74.7% | – | – | –
4 | Cc1nnc(-c2ccc(N3CCC(Oc4cc(F)ccc4Cl)CC3)nn2)o1 [CAY10566, reference compound] | – | – | – | – | – | – | resistant | low nanomolar | low nanomolar
5 | Cc1nn(C)c2cc(-c3noc(N4CCC(C(=O)N5CCO[C@@H](c6ccccc6)C5)CC4)n3)ccc12 [Compound 210] | > 45 | 2.27% | > 45 | 3.39% | > 45 | 30.48% | – | – | –
6 | COc1ccc(-c2nccc(C3CCN(C(=O)CNC(=O)c4ccccc4)CC3)n2)cc1OC [Compound 221] | > 45 | 113.54% | > 45 | 93.18% | > 45 | 100.56% | – | – | –
7 | CC(C)n1cc2ccc(-c3noc(C4CCN(C(=O)C5CC(=O)N(c6ccccc6)C5)CC4)n3)cc2n1 (centres unmarked) [Compound 180] | > 45 | 107.78% | > 45 | 82.28% | > 45 | 102.85% | – | – | –
8 | CC(C)n1cc2ccc(-c3noc(C4CCN(C(=O)OC(C)(C)C)CC4)n3)cc2n1 [Compound 277] | > 45 | 94.36% | > 45 | 74.99% | – | 76.49% | – | – | –
9 | CCOc1ccc(-c2noc(N3CCN(C(=O)CN4Cc5ccccc5C4=O)CC3)n2)cc1OC [Compound 225] | > 45 | 20.97% | > 45 | 88.95% | > 45 | 94.06% | – | – | –
10 | Cc1nn(C)c2cc(-c3noc(C4CCN(C(=O)CC(C)(C)C)CC4)n3)ccc12 [Compound 263] | > 45 | 8.71% | > 45 | 7.20% | – | 18.81% | – | – | –
11 | Cc1nn(C)c2cc(-c3noc(C4CCN(C(=O)[C@H]5CC(=O)N(c6ccc(C#N)cc6)C5)CC4)n3)ccc12 [Compound 307] | > 45 | 7.8% and 4.08% | > 45 | 52.5% and 27.45% | ≥ 45 | 78.2% and 70.58% | – | – | –
12 | Cc1nn(C)c2cc(-c3noc(N4CC5(CN(C(=O)CNC(=O)c6ccccc6)C5)C4)n3)ccc12 [Compound 212] | > 45 | 100.82% | > 45 | 76.28% | > 45 | 76.79% | – | – | –
13 | Cc1nn(C)c2cc(-c3noc(C4CCN(C(=O)CNC(=O)c5ccc(C#N)cc5)CC4)n3)ccc12 [Compound 267] | > 45 | 4.64% | > 45 | 11.33% | 37.8 | 58.58% | – | – | –
14 | Cc1nn(C(C)C)c2cc(-c3noc(C4CCN(C(=O)OC(C)(C)C)CC4)n3)ccc12 [Compound 343] | > 45 | 84.7% | > 45 | 23.2% | – | 59.1% | – | – | –
15 | Cc1nn(C)c2cc(-c3noc(C4CCN(C(=O)[C@@H](CO)NC(=O)c5ccccc5)CC4)n3)ccc12 [Compound 186] | > 45 | 35.40% | 30 | 73.51% | > 45 | 86.16% | – | – | –
16 | CCOc1cc(-c2noc(C3CCN(C(=O)CNC(=O)c4ccccc4)CC3)n2)ccc1OC [Compound 199] | > 45 | 24.34% | > 45 | 3.87% | > 45 | 27.85% | – | – | –
17 | CCOc1ccc(-c2noc(C3CCN(C(=O)CN4Cc5cccc(F)c5C4=O)CC3)n2)cc1OC [Compound 178] | > 45 | 7.39% | > 45 | 85.67% | > 45 | 114.07% | – | – | –
18 | Cc1ccc(N2CC(C(=O)N3CCC(c4nc(-c5ccc6c(C)nn(C)c6c5)no4)CC3)CC2=O)nc1 (centres unmarked) [Compound 184] | > 45 | 3.07% and 0.87% | > 45 | 2.41% and 11.92% | > 45 | 86.33% and 50.65% | – | – | –
19 | CCOc1ccc(-c2noc(C3CCN(C(=O)CN4Cc5cc(F)ccc5C4=O)CC3)n2)cc1OC [Compound 176] | > 45 | 3.62% | > 45 | 83.50% | > 45 | 107.22% | – | – | –
20 | Cc1nn(C)c2cc(-c3nc(C4CCN(C(=O)C5CC(=O)N(c6cccc(C#N)c6)C5)CC4)no3)ccc12 (centres unmarked) [Compound 331] | > 45 | 13.7% | > 45 | 24.9% | > 45 | 41.9% | – | – | –
